The test system of data set [1] is Staphylococcus aureus ATCC 25923. Put plainly: microbe, parasite or virus in culture. Format: cell-based. Summed up:
(§1)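 Growth inhibition read visually; MIC taken as lowest inhibitory concentration. LB medium; inocula from overnight cultures diluted 5000-fold, S. aureus 10000-fold. Peptide range 64 to 0.125 µg mL^−1 (2-fold, pre-mix), two independent determinations.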

For data set [2], the system named is Staphylococcus aureus ATCC 6538. Put plainly: microbe, parasite or virus in culture. It counts as cell-based. Summed up: as §1
Data set [3] relates to Enterococcus faecium 35682. In words: microbe, parasite or virus in culture. Format: cell-based. The gist of the method: as §1
For data set [4], the system named is Streptococcus mutans ATCC 25175. Put plainly: microbe, parasite or virus in culture. Format: cell-based. The gist of the method:
as §1

Data set [5] deals with Enterococcus faecalis 28. Put plainly: microbe, parasite or virus in culture. It counts as cell-based. Summed up:
as §1

The subject of data set [6] is Enterococcus faecalis ATCC 29212. Put plainly: microbe, parasite or virus in culture. Format: cell-based. Summed up:
as §1

Data set [7] has as its system Staphylococcus aureus USA300. Put plainly: microbe, parasite or virus in culture. Format: cell-based. The gist of the method:
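Broth microdilution in LB, run in two independent repeats. Overnight cultures were diluted 5000-fold, except S. aureus at 10000-fold, and mixed with peptide-containing LB (2-fold series, 64 to 0.125 µg mL^−1 before mixing). MIC is the lowest concentration that prevented visible growth.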

The test system of data set [8] is Staphylococcus aureus Newman. In words: microbe, parasite or virus in culture. Particulars: 16 h. Format: cell-based. Summed up: as §1
In data set [9] the test system is Enterococcus faecalis 26. Put plainly: microbe, parasite or virus in culture. Format: cell-based. The gist of the method:
as §1

The test system of data set [10] is Streptococcus pyogenes ATCC 19615. In words: microbe, parasite or virus in culture. Format: cell-based. The gist of the method:
as §1

The subject of data set [11] is Mycobacterium smegmatis mc2155. Put plainly: microbe, parasite or virus in culture. Particulars: Mycolicibacterium smegmatis, MC2155, read-out: MIC Mycobacterium smegmatis mc2155.
Data set [12] relates to B. subtilis ATCC 23857. In words: MIC assay (broth micro-dilution). It counts as cell-based. To be noted: Table S11; LB broth, 37 °C, 16 h, n = 2. The gist of the method: as §1
On the technique in general: Broth dilution looks for growth in wells or tubes with falling amounts of substance.

Data set [13] relates to Escherichia coli DH5α. Put plainly: MIC assay (broth micro-dilution). It counts as cell-based. Particulars: Table S11; LB broth, 37 °C, 16 h, n = 2. Summed up: as §1
The test system of data set [14] is Shigella Castellani LXX. In words: MIC assay (broth micro-dilution). To be noted: Table S11; LB broth, 37 °C, 16 h, n = 2. It counts as cell-based. Summed up: as §1
In data set [15] the test system is Pseudomonas aeruginosa PAO1. In words: microbe, parasite or virus in culture. Particulars: PAO1, 16 h. It counts as cell-based. Summed up: as §1
The test system of data set [16] is Acinetobacter baumannii P53. Put plainly: microbe, parasite or virus in culture. Particulars: Table S11; LB broth, 37 °C, 16 h, n = 2. Format: cell-based. Summed up: as §1
In data set [17] the test system is Klebsiella pneumoniae CRKP 5452. In words: microbe, parasite or virus in culture. It counts as cell-based. To be noted: Table S11; LB broth, 37 °C, 16 h, n = 2. The gist of the method: as §1
Data set [18] concerns Acinetobacter baumannii 1104008. Put plainly: microbe, parasite or virus in culture. It counts as cell-based. Particulars: Table S11; LB broth, 37 °C, 16 h, n = 2. Summed up: as §1
Data set [19] has as its system Acinetobacter baumannii ATCC 19606. Put plainly: microbe, parasite or virus in culture. Format: cell-based. Particulars: ATCC 19606, 16 h. Summed up: as §1
For data set [20], the system named is Klebsiella pneumoniae NCTC 5056. Put plainly: microbe, parasite or virus in culture. Format: cell-based. To be noted: NCTC 5056, 16 h. The gist of the method:
as §1

Data set [21] relates to Klebsiella pneumoniae CRKP HS11286. In words: microbe, parasite or virus in culture. Format: cell-based. Particulars: CRKP HS11286, 16 h. Summed up:
as §1

Data set [22] deals with Salmonella typhimurium LXX. Put plainly: microbe, parasite or virus in culture. It counts as cell-based. To be noted: murium LXX, 16 h. Summed up:
as §1

In data set [23] the test system is Acinetobacter baumannii ATCC 17978. Put plainly: microbe, parasite or virus in culture. Format: cell-based. To be noted: ATCC 17978, 16 h. Summed up: as §1
Data set [24] concerns Klebsiella pneumoniae ATCC 13883. In words: microbe, parasite or virus in culture. To be noted: ATCC 13883, 16 h. Format: cell-based. Summed up: as §1
Data set [25] has as its system Pseudomonas aeruginosa ATCC 9027. Put plainly: microbe, parasite or virus in culture. Particulars: ATCC 9027, 16 h. Format: cell-based. Summed up: as §1
Data set [26] concerns Vibrio alginolyticus XSBZ14. Put plainly: microbe, parasite or virus in culture. Format: cell-based. Particulars: 16 h. The gist of the method: as §1
Data set [27] deals with Salmonella enterica ATCC 14028. Put plainly: microbe, parasite or virus in culture. Format: cell-based. To be noted: ATCC 14028, 16 h. Summed up: as §1
In data set [28] the test system is Candida albicans ATCC 64550. Format: cell-based. To be noted: ATCC 64550, 16 h. On the procedure:
(§2) All MIC assays were performed two independent times (n = 2) in 96‐well plates using a broth micro‐dilution method. The lowest concentration of that inhibited visible microbial growth was recorded as the MIC value.
(§3) For fungal strains, overnight cultures were diluted 2000‐fold in YPD broth. 100 µL of diluted cells was mixed with 100 µL of YPD broth containing each peptide ranging from […] 64 to 0.125 µg mL^−1 at 2‐fold serial dilutions.

In data set [29] the test system is Candida albicans ATCC 10231. Put plainly: MIC assay (YPD broth). Format: cell-based. Particulars: Table S11; YPD broth, 30 °C, 16 h, n = 2. On the procedure:
as §2, §3

On the set-up of data set [30]: method as in earlier work. Particulars: Figure S20; cited from earlier work.
On the set-up of data set [31]: method as in earlier work. To be noted: Figure S20; cited from earlier work. This is another data set of the same source.
Data set [32] deals with Gram negative and positive bacteria. The arrangement: method as in 2 sources, one per row (each row's own in cited_ref): ref 49 (a number printed in a supplementary file, which may have a reference list of its own: not looked up in the article's list) ||| ref 50 (a number printed in a supplementary file, which may have a reference list of its own: not looked up in the article's list). Particulars: Figure S20, known paired peptides; cited from earlier work.

The mark [33] stands for this setting: Table S11, LB broth, 37 °C, 16 h, n = 2.

In brackets after ≈: the same amount, converted by molar mass. Square brackets hold non-standard residues; d marks the D form. Peptide text beside a SMILES is read from it. * marks the point of attachment. X2 = NC[C@H](Cc1ccc(O)cc1)N*; X1 = CC(C)[C@H](O)CC(=O)*; βAla = NCCC(=O)O

On to `CN[C@H](CC(C)C)C(=O)N[C@H]1C(=O)N[C@@H](CC(N)=O)C(=O)N[C@H]2C(=O)N[C@H]3C(=O)N[C@H](C(=O)N[C@H](C(=O)O)c4cc(O)cc(O)c4-c4cc3ccc4O)[C@H](O)c3ccc(c(Cl)c3)Oc3cc2cc(c3O[C@@H]2O[C@H](CO)[C@@H](O)[C@H](O)[C@H]2O[C@H]2C[C@](C)(N)[C@H](O)[C@H](C)O2)Oc2ccc(cc2Cl)[C@H]1O` [Vancomycin, reference compound], for which the MIC in [1] (Staphylococcus aureus, ATCC25923, 16 h, read-out: MIC Staphylococcus aureus ATCC 25923) was 1 µg/mL (≈ 0.69 µM); in data set [2] (Staphylococcus aureus, ATCC6538, 16 h, read-out: MIC Staphylococcus aureus ATCC 6538), 1 µg/mL (≈ 0.69 µM); in data set [3] (Enterococcus faecium, 35682, 16 h, read-out: MIC Enterococcus faecium 35682), greater than 64 µg/mL; in [4] (Streptococcus mutans, ATCC25175, 16 h, read-out: MIC Streptococcus mutans ATCC 25175) it was 2 µg/mL (≈ 1.38 µM); in data set [5] (Enterococcus faecalis, 28, 16 h, read-out: MIC Enterococcus faecalis 28), greater than 64 µg/mL; in [6] (Enterococcus faecalis, ATCC29212, 16 h, read-out: MIC Enterococcus faecalis ATCC 29212), 2 µg/mL (≈ 1.38 µM). The MIC is 1 µg/mL (≈ 0.69 µM) in data set [7] (Staphylococcus aureus, USA300, 16 h, read-out: MIC Staphylococcus aureus USA300); 0.5 µg/mL (≈ 0.345 µM) in [8] (Staphylococcus aureus, NEWMAN, read-out: MIC Staphylococcus aureus Newman); 1 µg/mL (≈ 0.69 µM) in data set [9] (Enterococcus faecalis, 26, 16 h, read-out: MIC Enterococcus faecalis 26); 0.5 µg/mL (≈ 0.345 µM) in [10] (Streptococcus pyogenes, ATCC19615, 16 h, read-out: MIC Streptococcus pyogenes ATCC 19615); greater than 64 µg/mL in data set [11].

For the molecule `CC[C@H](C)[C@H](NC(=O)[C@@H](NC(=O)[C@@H](C)NC(=O)[C@H](C)NC(=O)[C@@H](NC(=O)C[C@@H](O)C(C)C)C(C)C)[C@@H](C)CC)C(=O)NCCC(=O)N[C@@H](CC(C)C)C(=O)N[C@H](C)C(=O)N[C@H](C(=O)N[C@H](CN)Cc1ccc(O)cc1)[C@@H](C)CC` [synAQU4-L] (X1-VA[dA]II[βAla]L[dA]I-X2), in [12], the “MIC Bacllussubtilis ATCC 23857” value was greater than 64 µg/mL. Also, the “MIC Escherichia coli DH5α” value in data set [13] is greater than 64 µg/mL. Moreover, in [14], the “MIC Shigella Castellani LXX” value is greater than 64 µg/mL. In addition, the “MIC Pseudomonas aeruginosa PAO1” value in [15] was greater than 64 µg/mL. Further, in [16], the “MIC Acinetobacter baumannii P53” value is greater than 64 µg/mL. For the same molecule, the “MIC Klebsiella pneumoniae CRKP 5452” value in data set [17] was greater than 64 µg/mL. Moreover, in data set [1] (ATCC 25923, 16 h), the “MIC Staphylococcus aureus ATCC 25923” value was greater than 64 µg/mL. The “MIC Staphylococcus aureus ATCC 6538” value in [2] (ATCC 6538, 16 h) is greater than 64 µg/mL. Moreover, in data set [18], the “MIC Acinetobacter baumannii 1104008” value was greater than 64 µg/mL. The “MIC Enterococcus faecium 35682” value in [3] (35682, 16 h) was greater than 64 µg/mL. In addition, the “MIC Acinetobacter baumannii ATCC 19606” value in data set [19] is greater than 64 µg/mL. Besides, the “MIC Streptococcus mutans ATCC 25175” value in data set [4] (ATCC 25175, 16 h) was determined as 16 µg/mL (≈ 14.3 µM). The “MIC Enterococcus faecalis 28” value in [5] (28, 16 h) was greater than 64 µg/mL. The “MIC Klebsiella pneumoniae NCTC 5056” value in [20] is greater than 64 µg/mL. The “MIC Klebsiella pneumoniae CRKP HS11286” value in [21] was greater than 64 µg/mL. Besides, the “MIC Salmonella typhimurium LXX” value in [22] is greater than 64 µg/mL. Also, in [23], the “MIC Acinetobacter baumannii ATCC 17978” value was greater than 64 µg/mL. Also, the “MIC Klebsiella pneumoniae ATCC 13883” value in data set [24] was greater than 64 µg/mL. For the same molecule, the “MIC Pseudomonas aeruginosa ATCC 9027” value in data set [25] was greater than 64 µg/mL. The “MIC Enterococcus faecalis ATCC 29212” value in data set [6] (ATCC 29212, 16 h) is greater than 64 µg/mL. Also, the “MIC Vibrio alginolyticus XSBZ14” value in data set [26] is greater than 64 µg/mL. In data set [27], the “MIC Salmonella enterica ATCC 14028” value is greater than 64 µg/mL. For the same molecule, the “MIC Staphylococcus aureus USA300” value in data set [7] (setting [33]) is greater than 64 µg/mL. Also, the “MIC Staphylococcus aureus Newman” value in data set [8] (Newman) is greater than 64 µg/mL. The “MIC Enterococcus faecalis 26” value in [9] (26, 16 h) was greater than 64 µg/mL. Also, the “MIC Streptococcus pyogenes ATCC 19615” value in [10] (setting [33]) is 4 µg/mL (≈ 3.58 µM). For the same molecule, the “MIC Candida albicans ATCC 64550” value in data set [28] is greater than 64 µg/mL. For the same molecule, the “MIC Candida albicans ATCC 10231” value in data set [29] was greater than 64 µg/mL.

For Bacaucin, in data set [30], the cytotoxic activity entry is “Cyt ot oxic”. In addition, the hemolytic activity result in data set [31] is given as “He mo l y t i c”. In addition, in data set [32], the antibacterial activity result was “Broad antibacterial activity”.

In the case of Bacaucin-1, in data set [30], the cytotoxic activity result is listed as “No cytotoxic activity”. For the same molecule, the hemolytic activity result in data set [31] is given as “No hemolytic activity”. Moreover, in data set [32], the antibacterial activity entry is listed as “Specific anti-bacterial activity against MR S A”.

The values above are taken from article PMC12677607, “Identification of a Pair of Linear or Cyclic Naturally Inspired Bifunctional Lipopeptide Antibiotics That Overcome Antimicrobial Resistance” (Advanced Science, 2025).
